The text below walks through data of paper PMC5407577, “Functional and genetic evidence that nucleoside transport is highly conserved in Leishmania species: Implications for pyrimidine-based chemotherapy” (International Journal for Parasitology: Drugs and Drug …, 2017).

Like-named read-outs stand apart in the source and are kept apart here.

Assay [1] concerns the target LmexNT1. The format is cell-based, Leishmania mexicana. The following applies: inhibition of 1 μM [3H]-thymidine uptake, 20 s.
The next assay concerns L. major promastigotes. The assay can be described thus: total [3H]-uridine uptake by L. major promastigotes. It counts as cell-based, Leishmania major. In outline: (§1)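 Mid-to-late log-phase parasites were washed and held at 10^8 cells ml^−1 in HEPES/bicarbonate buffer with glucose, pH 7.3, then incubated at ambient temperature with radiolabelled permeant, with or without unlabelled substrate or inhibitors. Uptake was stopped with ice-cold excess unlabelled permeant and oil centrifugation, then counted by scintillation; saturation, inhibition and time-course data fitted by regression, in triplicate.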

The subject of the next assay is LmajU1. The arrangement: method as in Papageorgiou et al., 2005. The following applies: ref Papageorgiou et al., 2005; cited from earlier work.
The test system of the next assay is T. b. brucei strain B48. In words: microbe, parasite or virus in culture. It counts as cell-based. To be noted: Trypanosoma brucei, read-out: inhibition of 0.5 μM [3H]-uridine uptake, 250 μM inhibitor. The method, then: (§2) Using the standard uptake technique as described for T. brucei and Leishmania species ([Wallace et al., 2002], [Al-Salabi and De Koning, 2005], [Gudin et al., 2006]), the dose- or time-dependent uptake of radiolabeled permeants was investigated.
Briefly, cells in the mid-to-late logarithmic stage of growth were harvested by centrifugation for 10 min at 1500×g. The cells were washed twice with transport assay buffer (AB: 33 mM HEPES, 98 mM NaCl, 4.6 mM KCl, 0.55 mM CaCl2, 0.07 mM MgSO4, 5.8 mM NaH2PO4, 0.3 mM MgCl2, 23 mM NaHCO3, 14 mM glucose, pH 7.3), resuspended at a density of 10^8 cells ml^−1 in AB, and left for 20–30 min at room temperature to recover from centrifugation stress. One hundred microliters of cell suspension was incubated at ambient temperature for a predetermined time with 100 μl radiolabeled test compound, in the presence or absence of unlabeled substrate or other competitive inhibitors. The incubation was terminated by the addition of ice-cold stop solution (AB containing saturating levels, usually 10 mM, of unlabeled permeant) and centrifugation through oil for 1 min at 13,000 × g. […] Radioactivity was determined by liquid scintillation counting in a Beckman LS6000 TA scintillation counter. Saturation data, inhibition data, and time courses were plotted to equations for linear or non-linear regression (hyperbolic or sigmoid curves), as appropriate. […]

The test system of another assay is Lmaj5F2′dURes. It counts as cell-based, Leishmania major. To be noted: 0.25 μM [3H]-uridine, 0.5 μM [3H]-uracil. The method, then: as §2
(§3) Briefly, cells in the mid-to-late logarithmic stage of growth were harvested by centrifugation for 10 min at 1500×g. The cells were washed twice with transport assay buffer (AB: 33 mM HEPES, 98 mM NaCl, 4.6 mM KCl, 0.55 mM CaCl2, 0.07 mM MgSO4, 5.8 mM NaH2PO4, 0.3 mM MgCl2, 23 mM NaHCO3, 14 mM glucose, pH 7.3), resuspended at a density of 10^8 cells ml^−1 in AB, and left for 20–30 min at room temperature to recover from centrifugation stress. One hundred microliters of cell suspension was incubated at ambient temperature for a predetermined time with 100 μl radiolabeled test compound, in the presence or absence of unlabeled substrate or other competitive inhibitors. The incubation was terminated by the addition of ice-cold stop solution (AB containing saturating levels, usually 10 mM, of unlabeled permeant) and centrifugation through oil for 1 min at 13,000 × g. […] Radioactivity was determined by liquid scintillation counting in a Beckman LS6000 TA scintillation counter. Saturation data, inhibition data, and time courses were plotted to equations for linear or non-linear regression (hyperbolic or sigmoid curves), as appropriate. All experiments were performed in triplicate and on at least three independent occasions.

The next assay has as its system Lmaj5FURes. It counts as cell-based, Leishmania major. To be noted: 0.5 μM radiolabel. As for the experimental part: as §2, §3
The target of assay [2] is LmajNT1. The assay can be described thus: [3H]-uridine uptake by L. major promastigotes, low-affinity component. The format is cell-based, Leishmania major. The gist of the method: as §1
In the next assay the target is LmajUUT1. In words: [3H]-uridine uptake by L. major promastigotes, high-affinity uracil-sensitive component. The format is cell-based, Leishmania major. The following applies: for Km: double reciprocal plot, n = 3, read-out: Km (1). In outline:
as §1

For assay [3], the target named is LmexNT1. It counts as cell-based, Leishmania mexicana. The gist of the method:
as §1

The subject of another assay is Lmex5FURes. The format is cell-based, Leishmania mexicana. To be noted: 0.5 μM radiolabel. The gist of the method:
as §1

Assay [4] concerns L. mexicana promastigotes. The format is cell-based, Leishmania mexicana. The gist of the method: as §1
The test system of the next assay is Lmex5F2′dURes. The format is cell-based, Leishmania mexicana. To be noted: 0.5 μM [3H]-uridine, 0.1 μM [3H]-adenosine, 0.25 μM [3H]-uracil. In outline:
as §1

The next assay relates to LmexUU1. It counts as cell-based, Leishmania mexicana. The gist of the method:
as §1

The target in assay [5] is LmexNT1. The assay can be described thus: [3H]-adenosine uptake by L. mexicana promastigotes. It counts as cell-based, Leishmania mexicana. To be noted: inhibition of 0.05 μM [3H]-adenosine uptake; read-out: Ki.
The target in assay [6] is LmajNT1. The assay can be described thus: [3H]-thymidine uptake by L. major promastigotes. The following applies: inhibition of 0.25 μM [3H]-thymidine uptake (total LmajNT1.1 + LmajNT1.2), 5 min. It counts as cell-based, Leishmania major.
For assay [7], the target named is P1 adenosine/inosine transporter. Also on record: method as in De Koning and Jarvis, 1999. The following applies: ref De Koning and Jarvis, 1999; cited from earlier work.
In the next assay the test system is LdNT1.2. Also on record: method as in Vasudevan et al., 1998; Landfear, 2001. To be noted: ref Vasudevan et al., 1998; Landfear, 2001; cited from earlier work.
Another assay deals with LdNT1.1. Also on record: method as in Vasudevan et al., 1998; Landfear, 2001. The following applies: ref Vasudevan et al., 1998; Landfear, 2001; cited from earlier work.
[8] abbreviates: inhibition of 0.25 μM [3H]-uridine uptake.
[9] abbreviates: [3H]-uridine, high affinity component.

Turning to `O=c1cc[nH]c(=O)[nH]1` [uracil], the Ki at LmexNT1 [1] is greater than 2500 µM; on LmajNT1 [2] (setting [8]), greater than 1000 µM; on LmajUUT1 (setting [8]) it was 2.65 ± 0.6 µM; at LmexNT1 [3] (inhibition of 0.25 μM [3H]-uridine uptake in the presence of 1 mM uracil), greater than 2500 µM; in [4] (read-out: Ki, uracil-sensitive uridine transporter, partial inhibition of 0.25 μM [3H]-uridine uptake, n = 5), 25.7 ± 6.6 µM; on LmexNT1 [5], greater than 2500 µM. Also, on LmajNT1 [6], the inhibitory constant (Ki) is greater than 1000 µM. In addition, the inhibition at 0.25 µM in the assay with L. major promastigotes (Leishmania major, 3 h, read-out: partial (maximal) inhibition of 0.25 μM [3H]-uridine transport) was 77.2 ± 2.7%. The Km is 0.32 µM in the assay on LmajU1 and 29.7 ± 4.4 µM in the assay with LmexUU1 ([3H]-uracil, 4 min, n = 3). The inhibition at 250 µM in the assay on T. b. brucei strain B48 was found to be 75.7%. Besides, the “uptake of radiolabel, lower than in WT control cells” value in the assay with Lmaj5F2′dURes is on record as 80%; in the assay on Lmaj5F2′dURes (listed as [^3H]-uracil) it was 81.4%; with Lmaj5FURes, 95.7%; with Lmex5FURes it was 90.2%. For the same molecule, the “inhibition of 0.25 μM [3H]-uridine transport” value in assay [4] (maximal inhibition, uracil up to 2.5 mM (Fig. 3B)) is 48%. Also, the “uptake of radiolabel, reduced compared to WT control cells” value with Lmex5F2′dURes is recorded as “unaffected”; with Lmex5F2′dURes (listed as [^3H]-uracil), “not significantly different”. Besides, the rate of transport in the assay on LmexUU1 (0.25 μM [3H]-uracil, linear to at least 10 min) is on record as 0.0020 ± 0.0002 pmol(10^7 cells)^−1s^−1; with LmexUU1 (0.5 μM [3H]-uracil, linear over 10 min (Fig. 4B legend)), 0.0020 ± 0.0002 pmol(10^7 cells)^−1s^−1; in the assay on LmexUU1 (1 μM [3H]-uracil, linear over 120 s), 0.0030 ± 0.0002 pmol(10^7 cells)^−1s^−1. The “inhibition of 0.5 μM [3H]-uracil transport” value in the assay on LmexUU1 (1 mM unlabeled uracil) was 95%. The Vmax in the assay with LmexUU1 ([3H]-uracil) was 0.088 ± 0.010 pmol(10^7 cells)^−1s^−1.
Take `O=c1ccn([C@@H]2O[C@H](CO)[C@@H](O)[C@H]2O)c(=O)[nH]1` [uridine]: the inhibition constant (Ki) is 9.1 ± 0.6 µM at LmexNT1 [1]; 830 µM in [7]; 2 ± 0.5 µM at LmexUU1 (inhibition of [3H]-uracil uptake, 4 min); 16.8 ± 1.3 µM on LmexNT1 [5]. In addition, the Km with L. major promastigotes (n = 3, read-out: apparent Km (single Michaelis-Menten saturation plot)) was found to be 7.3 ± 1.3 µM; in the assay on LmajNT1 [2] ([3H]-uridine, low affinity component, n = 3, read-out: Km (2)), 33.5 ± 7.3 µM; in the assay on LmajUUT1 ([3H]-uridine, high affinity component, listed as [^3H]-uridine), 3.12 ± 0.61 µM; in the assay on LmajUUT1 (setting [9]) it was 3.1 ± 0.6 µM; in the assay with LmexNT1 [3] ([3H]-uridine, measured in the presence of 1 mM uracil), 13.3 ± 2.4 µM; in assay [4] (read-out: Km for the uridine flux, total flux, no uracil, n = 5), 7.15 ± 0.9 µM. The figures for the Km in the assay on LdNT1.2 and in the assay with LdNT1.1 were 40 µM and 5 µM, respectively. Further, the “Vmax (2)” value with LmajNT1 [2] ([3H]-uridine, low affinity component) was 0.15 ± 0.04 pmol(10^7 cells)^−1s^−1. Moreover, the “Vmax (1)” value with LmajUUT1 (setting [9]) was 0.036 ± 0.004 pmol(10^7 cells)^−1s^−1. Besides, in the assay with LmexNT1 [3] ([3H]-uridine, in the presence of 1 mM uracil), the Vmax was 0.74 ± 0.13 pmol(10^7 cells)^−1s^−1. The “maximal inhibition of [3H]-uracil transport” value in the assay with LmexUU1 (n = 3) is “approximately 85%”.
